Results from PubChem BioAssay (NCI).
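Dose response: 5 concentrations. Exposure: 48 h. Format: 96-well plates. Endpoint: linear interpolation; highest concentration if not reached. GI50 marks 50% less growth. TGI is the concentration that stops growth completely.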

Experiments:
Test in all cases: DTP human tumour cell line panel, 48 h
COLO 205 colon = tested on: COLO 205 colon
OVCAR-5 ovarian = tested on: OVCAR-5 ovarian
OVCAR-4 ovarian = tested on: OVCAR-4 ovarian
MDA-MB-468 breast = tested on: MDA-MB-468 breast
SR leukemia = tested on: SR leukemia
UACC-62 melanoma = tested on: UACC-62 melanoma
U251 CNS = tested on: U251 CNS
UACC-257 melanoma = tested on: UACC-257 melanoma
T-47D breast = tested on: T-47D breast
HCC-2998 colon = tested on: HCC-2998 colon
DU-145 prostate = tested on: DU-145 prostate
TK-10 renal = tested on: TK-10 renal
NCI-H226 lung = tested on: NCI-H226 lung
UO-31 renal = tested on: UO-31 renal
KM12 colon = tested on: KM12 colon
PC-3 prostate = tested on: PC-3 prostate
SN12C renal = tested on: SN12C renal
NCI-H23 lung = tested on: NCI-H23 lung
MDA-MB-231 breast = tested on: MDA-MB-231 breast
HOP-92 NSCLC = tested on: HOP-92 NSCLC
SK-OV-3 ovarian = tested on: SK-OV-3 ovarian
RPMI-8226 leukemia = tested on: RPMI-8226 leukemia
SK-MEL-5 melanoma = tested on: SK-MEL-5 melanoma
NCI-H522 lung = tested on: NCI-H522 lung
LOX IMVI melanoma = tested on: LOX IMVI melanoma
OVCAR-8 ovarian = tested on: OVCAR-8 ovarian
IGROV1 ovarian = tested on: IGROV1 ovarian
SNB-19 CNS = tested on: SNB-19 CNS
HOP-62 NSCLC = tested on: HOP-62 NSCLC
MOLT-4 leukemia = tested on: MOLT-4 leukemia
SF-268 CNS = tested on: SF-268 CNS
SK-MEL-28 melanoma = tested on: SK-MEL-28 melanoma
SNB-75 CNS = tested on: SNB-75 CNS
SF-295 CNS = tested on: SF-295 CNS
SF-539 CNS = tested on: SF-539 CNS
OVCAR-3 ovarian = tested on: OVCAR-3 ovarian
CCRF-CEM leukemia = tested on: CCRF-CEM leukemia
K-562 leukemia = tested on: K-562 leukemia
EKVX NSCLC = tested on: EKVX NSCLC
786-0 renal = tested on: 786-0 renal
HT29 colon = tested on: HT29 colon
A549 NSCLC = tested on: A549 NSCLC
MALME-3M melanoma = tested on: MALME-3M melanoma
A498 renal = tested on: A498 renal
RXF 393 renal = tested on: RXF 393 renal
HS 578T breast = tested on: HS 578T breast
ACHN renal = tested on: ACHN renal
HCT-116 colon = tested on: HCT-116 colon
SW-620 colon = tested on: SW-620 colon
HL-60(TB) leukemia = tested on: HL-60(TB) leukemia
MCF7 breast = tested on: MCF7 breast
HCT-15 colon = tested on: HCT-15 colon
BT-549 breast = tested on: BT-549 breast
NCI-H460 lung = tested on: NCI-H460 lung
CAKI-1 renal = tested on: CAKI-1 renal

Q: How did the GI50 (COLO 205 colon) turn out when `NC(=Nc1ccc(OCCCCCCCCn2cnnn2)cc1)c1ccccc1` was run?
A: 284 nM

Q: What about the TGI (COLO 205 colon) of the same molecule?
A: 1860 nM

Q: What about the GI50 (OVCAR-5 ovarian) of the same molecule?
A: 458 nM

Q: What about the TGI (OVCAR-5 ovarian) of the same molecule?
A: > 41500 nM

Q: What about the GI50 (OVCAR-4 ovarian) of the same molecule?
A: 12400 nM

Q: What about the TGI (OVCAR-4 ovarian) of the same molecule?
A: > 100000 nM

Q: And the GI50 (MDA-MB-468 breast)?
A: 167 nM

Q: And the TGI (MDA-MB-468 breast)?
A: 695 nM

Q: And the GI50 (SR leukemia)?
A: 75.2 nM

Q: What about the TGI (SR leukemia) of the same molecule?
A: > 50500 nM

Q: What about the GI50 (UACC-62 melanoma) of the same molecule?
A: 442 nM

Q: And the TGI (UACC-62 melanoma)?
A: 19900 nM

Q: What about the GI50 (U251 CNS) of the same molecule?
A: 383 nM

Q: And the TGI (U251 CNS)?
A: > 63500 nM

Q: What about the GI50 (UACC-257 melanoma) of the same molecule?
A: 8360 nM

Q: And the TGI (UACC-257 melanoma)?
A: > 60000 nM

Q: What about the GI50 (T-47D breast) of the same molecule?
A: 392 nM

Q: What about the TGI (T-47D breast) of the same molecule?
A: 63200 nM

Q: And the GI50 (HCC-2998 colon)?
A: 494 nM

Q: And the TGI (HCC-2998 colon)?
A: 11700 nM

Q: And the GI50 (DU-145 prostate)?
A: 438 nM

Q: And the TGI (DU-145 prostate)?
A: > 100000 nM

Q: And the GI50 (TK-10 renal)?
A: 3060 nM

Q: What about the TGI (TK-10 renal) of the same molecule?
A: > 83700 nM

Q: And the GI50 (NCI-H226 lung)?
A: 321 nM

Q: And the TGI (NCI-H226 lung)?
A: 4550 nM

Q: And the GI50 (UO-31 renal)?
A: 555 nM

Q: What about the TGI (UO-31 renal) of the same molecule?
A: 40800 nM

Q: What about the GI50 (KM12 colon) of the same molecule?
A: 423 nM

Q: What about the TGI (KM12 colon) of the same molecule?
A: > 73100 nM

Q: What about the GI50 (PC-3 prostate) of the same molecule?
A: 454 nM

Q: What about the TGI (PC-3 prostate) of the same molecule?
A: 97700 nM

Q: And the GI50 (SN12C renal)?
A: 472 nM

Q: What about the TGI (SN12C renal) of the same molecule?
A: 18200 nM

Q: And the GI50 (NCI-H23 lung)?
A: 436 nM

Q: And the TGI (NCI-H23 lung)?
A: 20100 nM

Q: What about the GI50 (MDA-MB-231 breast) of the same molecule?
A: 439 nM

Q: And the TGI (MDA-MB-231 breast)?
A: 9700 nM

Q: What about the GI50 (HOP-92 NSCLC) of the same molecule?
A: 8000 nM

Q: And the TGI (HOP-92 NSCLC)?
A: 59400 nM

Q: And the GI50 (SK-OV-3 ovarian)?
A: 439 nM

Q: And the TGI (SK-OV-3 ovarian)?
A: 35900 nM

Q: And the GI50 (RPMI-8226 leukemia)?
A: 364 nM

Q: And the TGI (RPMI-8226 leukemia)?
A: 19600 nM

Q: And the GI50 (SK-MEL-5 melanoma)?
A: 282 nM

Q: And the TGI (SK-MEL-5 melanoma)?
A: 1420 nM

Q: What about the GI50 (NCI-H522 lung) of the same molecule?
A: 201 nM

Q: And the TGI (NCI-H522 lung)?
A: 720 nM

Q: What about the GI50 (LOX IMVI melanoma) of the same molecule?
A: 488 nM

Q: And the TGI (LOX IMVI melanoma)?
A: 13900 nM

Q: What about the GI50 (OVCAR-8 ovarian) of the same molecule?
A: 490 nM

Q: What about the TGI (OVCAR-8 ovarian) of the same molecule?
A: > 64800 nM

Q: What about the GI50 (IGROV1 ovarian) of the same molecule?
A: 717 nM

Q: And the TGI (IGROV1 ovarian)?
A: 21800 nM

Q: And the GI50 (SNB-19 CNS)?
A: 594 nM

Q: And the TGI (SNB-19 CNS)?
A: > 100000 nM

Q: And the GI50 (HOP-62 NSCLC)?
A: 439 nM

Q: What about the TGI (HOP-62 NSCLC) of the same molecule?
A: 18900 nM

Q: And the GI50 (MOLT-4 leukemia)?
A: 460 nM

Q: What about the TGI (MOLT-4 leukemia) of the same molecule?
A: > 72200 nM

Q: What about the GI50 (SF-268 CNS) of the same molecule?
A: 6870 nM

Q: And the TGI (SF-268 CNS)?
A: > 79700 nM

Q: And the GI50 (SK-MEL-28 melanoma)?
A: 783 nM

Q: What about the TGI (SK-MEL-28 melanoma) of the same molecule?
A: > 49200 nM

Q: What about the GI50 (SNB-75 CNS) of the same molecule?
A: 400 nM

Q: And the TGI (SNB-75 CNS)?
A: 50200 nM

Q: What about the GI50 (SF-295 CNS) of the same molecule?
A: 281 nM

Q: And the TGI (SF-295 CNS)?
A: 12400 nM

Q: What about the GI50 (SF-539 CNS) of the same molecule?
A: 223 nM

Q: And the TGI (SF-539 CNS)?
A: 606 nM

Q: What about the GI50 (OVCAR-3 ovarian) of the same molecule?
A: 398 nM

Q: And the TGI (OVCAR-3 ovarian)?
A: > 52000 nM

Q: What about the GI50 (CCRF-CEM leukemia) of the same molecule?
A: 358 nM

Q: And the TGI (CCRF-CEM leukemia)?
A: 38200 nM

Q: What about the GI50 (K-562 leukemia) of the same molecule?
A: 183 nM

Q: What about the TGI (K-562 leukemia) of the same molecule?
A: > 55100 nM

Q: What about the GI50 (EKVX NSCLC) of the same molecule?
A: 418 nM

Q: What about the TGI (EKVX NSCLC) of the same molecule?
A: > 100000 nM

Q: And the GI50 (786-0 renal)?
A: 507 nM

Q: What about the TGI (786-0 renal) of the same molecule?
A: 30900 nM

Q: What about the GI50 (HT29 colon) of the same molecule?
A: 269 nM

Q: What about the TGI (HT29 colon) of the same molecule?
A: 2260 nM

Q: What about the GI50 (A549 NSCLC) of the same molecule?
A: 586 nM

Q: And the TGI (A549 NSCLC)?
A: > 100000 nM

Q: And the GI50 (MALME-3M melanoma)?
A: 266 nM

Q: What about the TGI (MALME-3M melanoma) of the same molecule?
A: 18200 nM

Q: What about the GI50 (A498 renal) of the same molecule?
A: 17400 nM

Q: What about the TGI (A498 renal) of the same molecule?
A: 63400 nM

Q: And the GI50 (RXF 393 renal)?
A: 216 nM

Q: What about the TGI (RXF 393 renal) of the same molecule?
A: 752 nM

Q: What about the GI50 (HS 578T breast) of the same molecule?
A: 307 nM

Q: And the TGI (HS 578T breast)?
A: 48800 nM

Q: What about the GI50 (ACHN renal) of the same molecule?
A: 659 nM

Q: What about the TGI (ACHN renal) of the same molecule?
A: 62000 nM

Q: What about the GI50 (HCT-116 colon) of the same molecule?
A: 353 nM

Q: And the TGI (HCT-116 colon)?
A: 13800 nM

Q: What about the GI50 (SW-620 colon) of the same molecule?
A: 352 nM

Q: What about the TGI (SW-620 colon) of the same molecule?
A: > 100000 nM

Q: What about the GI50 (HL-60(TB) leukemia) of the same molecule?
A: 246 nM

Q: And the TGI (HL-60(TB) leukemia)?
A: 846 nM

Q: And the GI50 (MCF7 breast)?
A: 157 nM

Q: What about the TGI (MCF7 breast) of the same molecule?
A: 18900 nM

Q: And the GI50 (HCT-15 colon)?
A: 272 nM

Q: What about the TGI (HCT-15 colon) of the same molecule?
A: 15400 nM

Q: And the GI50 (BT-549 breast)?
A: 836 nM

Q: And the TGI (BT-549 breast)?
A: 18800 nM

Q: And the GI50 (NCI-H460 lung)?
A: 343 nM

Q: And the TGI (NCI-H460 lung)?
A: 19000 nM

Q: And the GI50 (CAKI-1 renal)?
A: 324 nM

Q: What about the TGI (CAKI-1 renal) of the same molecule?
A: 46100 nM
